target: T1, Cytochrome P450 2A6 (CYP2A6) (Homo sapiens, UniProt P11509); assay: Vivid CYP450 fluorescence inhibition assay with CYP2A6 baculosomes, 10-point dose-response; format: biochemical
T1 sequence (P11509 1-494): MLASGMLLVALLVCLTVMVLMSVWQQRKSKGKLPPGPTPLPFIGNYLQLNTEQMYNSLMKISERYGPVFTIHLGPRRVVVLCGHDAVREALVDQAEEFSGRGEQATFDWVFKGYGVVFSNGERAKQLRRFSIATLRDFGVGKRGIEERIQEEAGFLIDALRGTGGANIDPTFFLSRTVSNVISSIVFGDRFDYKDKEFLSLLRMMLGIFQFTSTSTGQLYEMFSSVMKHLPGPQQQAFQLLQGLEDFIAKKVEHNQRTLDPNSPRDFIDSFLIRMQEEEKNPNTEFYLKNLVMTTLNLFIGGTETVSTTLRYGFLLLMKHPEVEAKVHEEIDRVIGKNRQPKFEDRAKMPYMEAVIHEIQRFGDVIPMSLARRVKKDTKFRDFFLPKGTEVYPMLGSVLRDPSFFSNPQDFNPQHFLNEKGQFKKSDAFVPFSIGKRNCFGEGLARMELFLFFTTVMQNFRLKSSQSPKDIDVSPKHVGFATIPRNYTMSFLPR

IC50	Structure (SMILES)
4.61 µM	CCOC(=O)COc1c(-c2ccccc2)oc2ccccc2c1=O [compound 2, Ethyl 2-((4-Oxo-2-phenyl-4H-chromen-3-yl)oxy)acetate]
37.9 µM	CCOC(=O)COc1ccccc1-c1cc(=O)c2ccccc2o1 [compound 1, Ethyl 2-(2-(4-Oxo-4H-chromen-2-yl)phenoxy)acetate]
1.57 µM	O=C(O)COc1ccccc1-c1cc(=O)c2ccccc2o1 [compound 6, 2-(2-(4-Oxo-4H-chromen-2-yl)phenoxy)acetic Acid]

From paper PMC10731637, “Design, Synthesis, and Biological Studies of Flavone-Based Esters and Acids as Potential P450 2A6 Inhibitors” (Chemical Research in Toxicology, 2023)
